# Patent US20090012179A1, “Use of Tyrphostins to Stimulate Neurite Outgrowth” (priority 2004, published 2009)
# “Also recorded” adds a separate entry of the source.
# Legend:
# [1] = tested on: primary dopaminergic neuron cultures; assay: Neuroprotection against MPP+ in primary dopaminergic neuron cultures; format: cell-based, rat; settings: MPP+ 25 μM; A9 added before or after MPP+; TH staining
# Method: Primary cultures of rat embryonic SNc neuron cultures were grown on treated 12-well plates (for dopamine uptake) or coverslips (for neuroprotection) for 10 days as described in the Examples section. In FIG. 6A, the neurons were treated with different concentrations of A9 for 6 days before dopamine uptake was measured. Data=mean±SD (n=3). In FIG. […] Half of the medium was changed with fresh A9 on day 14. The neurons were fixed on day 16 and stained for tyrosine hydroxylase (TH, green) and total-ERK (red). Images were captured with fluorescence microscopy at magnification×100.
# The dopaminergic neurons that have been cultured on poly-D-lysine treated coverslips or 12-well cell culture plates for 10 days are treated with vehicle or A9 at 1 nM, 10 nM, 100 nM, or 1 μM for 7 days. […] Half of the medium is changed with fresh medium containing A9 at day 4. To test the involvement of ERK and PI3K, inhibitors (including PD98059, SL327, wortmannin, and LY294002) are added with A9. […] The amount of HSV used and the best time to do functional assays is determined. To count the TH-positive neurons, the neurons on coverslips are fixed, stained for both tyrosine hydroxylase (TH) and total-ERK (control) at the end of A9 treatment and imaged with a conventional or confocal fluorescence microscope. […]
# [2] = tested on: ERK; assay: ERK activation in SH-SY5Y cells; format: cell-based, human
# Method: SH-SY5Y cells are treated with A9, NGF ([…]), or EGF (10 ng/ml) for different durations, including 5, 15, 30, 60, and 120 minutes, to generate time-response curves for A9, NGF, and EGF. The level of ERK activation is measured by immunoblotting for the active (phosphorylated) ERK. The time-point with the maximum ERK response determined above is chosen for immunoprecipitation studies to assess the activation of PI3K, PDK1, and PKB/Akt. Cells are lysed with RIPA^+ buffer and precipitated with polyclonal antibodies for PI3K, PDK1, and PKB/Akt, and then the presence of p-Tyr in the precipitates will be determined by immunoblotting with the specific p-Tyr monoclonal antibody 4G10 (Upstate).
smiles,measurement,setting,value
"CC(C)(C)c1cc(C=C(C#N)C#N)cc(C(C)(C)C)c1O [A9, tyrphostin A9]",Protective effect against neurotoxin MPP+,[1],robust protective effect; also recorded: neuroprotection against MPP^+
same,"ERK activation in SH-SY5Y, indicated by use of MEK inhibitor PD98059",[2],ERK is activated
